Key:
Assay in all cases: relative viability (nuclei count vs DMSO), 5 days (fraction); higher = more cells survive
[1] = compound: CC(C)N(CCCNC(=O)Nc1ccc(C(C)(C)C)cc1)C[C@H]1O[C@@H](n2ccc3c(N)ncnc32)[C@H](O)[C@@H]1O + CS(=O)(=O)N1CCN(Cc2cc3nc(-c4cccc5[nH]ncc45)nc(N4CCOCC4)c3s2)CC1 [Pictilisib] (partner 1 µM)
Outline: (§1)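 The day after seeding in 1536-well plates, lung cancer cell lines were treated by pin tool with a single drug, or with a fixed anchor-drug dose together with five library-drug doses (not always all listed) in √10 steps. After 5 days, a combined fix-and-stain solution (final 0.05% Triton X-100, 1% formaldehyde, 1 ug/ml Hoechst) was added. Nuclei counted on 4× images gave relative viability as treated counts over vehicle counts, reported as the median of duplicate plates.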

[2] = compound: CC(C)N(CCCNC(=O)Nc1ccc(C(C)(C)C)cc1)C[C@H]1O[C@@H](n2ccc3c(N)ncnc32)[C@H](O)[C@@H]1O + CC(=O)Nc1cccc(-n2c(=O)n(C3CC3)c(=O)c3c(Nc4ccc(I)cc4F)n(C)c(=O)c(C)c32)c1 [Trametinib] (partner 0.02 µM)
Outline: as §1

[3] = compound: CC(C)=CC[C@@H](O)C1=CC(=O)c2c(O)ccc(O)c2C1=O [Shikonin] + CC(=O)c1c(C)c2cnc(Nc3ccc(N4CCNCC4)cn3)nc2n(C2CCCC2)c1=O [Palbociclib] (partner 0.5 µM)
Outline: as §1

[4] = compound: CC(C)N(CCCNC(=O)Nc1ccc(C(C)(C)C)cc1)C[C@H]1O[C@@H](n2ccc3c(N)ncnc32)[C@H](O)[C@@H]1O + CC(=O)c1c(C)c2cnc(Nc3ccc(N4CCNCC4)cn3)nc2n(C2CCCC2)c1=O [Palbociclib] (partner 0.5 µM)
Outline: as §1

Cell Line	relative viability ([1]; first compound 0.08 µM)	relative viability ([1]; first compound 0.8 µM)	relative viability ([1]; first compound 2.53 µM)	relative viability ([1]; first compound 8 µM)	relative viability ([2]; first compound 0.08 µM)	relative viability ([2]; first compound 0.8 µM)	relative viability ([2]; first compound 2.53 µM)	relative viability ([2]; first compound 8 µM)	relative viability ([3]; first compound 0.01 µM)	relative viability ([3]; first compound 0.1 µM)	relative viability ([3]; first compound 0.3162 µM)	relative viability ([3]; first compound 1 µM)	relative viability ([4]; first compound 0.08 µM)	relative viability ([4]; first compound 0.8 µM)	relative viability ([4]; first compound 2.53 µM)	relative viability ([4]; first compound 8 µM)	relative viability ([1]; first compound 0.253 µM)	relative viability ([2]; first compound 0.253 µM)	relative viability ([4]; first compound 0.253 µM)
NCI-H1793	0.296	0.369	0.281	0.35	0.394	0.367	0.446	0.422	0.283	0.321	0.306	0.345	0.295	0.292	0.38	0.303	–	–	–
NCI-H1915	0.939	0.868	0.912	0.808	0.3	0.302	0.311	0.292	0.535	0.521	0.525	0.645	0.517	0.517	0.533	0.525	0.879	0.306	0.543
NCI-H1944	0.314	0.285	0.384	0.366	0.362	0.372	0.439	0.448	0.311	0.403	0.321	0.349	0.322	0.348	0.329	0.353	0.292	0.39	0.302
NCI-H1975	0.289	0.197	0.271	0.289	0.347	0.167	0.308	0.32	0.549	0.629	0.541	0.641	0.557	0.205	0.499	0.497	0.268	0.29	0.486
NCI-H1993	0.822	0.868	0.781	0.773	0.609	0.569	0.471	0.486	0.687	0.672	0.722	0.455	0.616	0.57	0.609	0.65	0.716	–	–
NCI-H2009	0.817	0.826	0.976	0.854	0.272	0.301	0.255	0.296	0.248	0.203	0.213	0.145	0.148	0.184	0.174	0.255	0.663	0.244	0.198
NCI-H2023	0.265	0.219	0.333	0.217	0.536	0.559	0.495	0.459	0.437	0.363	0.411	0.401	0.458	0.634	0.338	0.329	0.215	0.579	0.312
NCI-H2085	0.456	0.429	0.455	0.568	0.509	0.685	0.572	0.47	0.468	0.509	0.447	0.479	0.47	0.524	0.547	0.481	0.405	0.455	0.48
NCI-H2087	0.898	0.745	0.963	0.653	0.165	0.225	0.232	0.22	0.235	0.234	0.219	0.256	0.29	0.276	0.203	0.269	0.778	0.191	0.235
NCI-H2126	0.499	0.415	0.529	0.48	0.551	0.555	0.577	0.58	0.362	0.408	0.379	0.349	0.358	0.355	0.378	0.371	0.476	0.572	0.366
NCI-H2170	0.36	0.336	0.372	0.323	0.965	0.862	0.866	0.914	0.392	0.376	0.395	0.422	0.407	0.372	0.381	0.351	0.262	0.912	0.399
NCI-H2228	0.483	0.462	0.478	0.28	0.631	0.388	0.52	0.526	0.812	0.939	0.754	0.729	0.789	0.643	0.77	0.701	–	0.375	0.56
NCI-H2347	0.45	0.661	0.582	0.842	0.248	0.251	0.284	0.282	0.432	0.424	0.414	0.397	0.423	0.407	0.553	0.404	0.546	0.281	0.44
NCI-H2405	0.506	0.358	0.46	0.429	0.669	0.598	0.765	0.644	0.527	0.569	0.558	0.509	0.515	0.532	0.546	0.507	–	0.591	0.539
NCI-H3122	0.653	0.634	0.493	0.553	0.242	0.202	0.242	0.247	0.228	0.215	0.178	0.176	0.204	0.161	0.198	0.197	0.576	0.299	0.162
PC-3 [JPC-3]	0.757	0.658	0.656	0.727	0.664	–	0.715	0.683	0.59	0.589	0.538	0.552	0.54	–	0.507	0.487	0.677	0.722	0.53
PC-14	0.657	0.795	0.882	0.57	0.648	0.842	0.718	0.558	0.397	0.535	0.524	0.509	0.467	0.586	0.444	0.496	0.528	0.701	0.439

From the supplement of paper PMC10307832
